# Measurements from article PMC10604610, “An Induced Pluripotent Stem Cell-Derived Human Blood–Brain Barrier (BBB) Model to Test the Crossing by Adeno-Associated Virus (AAV) Vectors and Antisense Oligonucleotides” (Biomedicines, 2023).
# How the values were obtained:
# iPSC-derived BMECs = conditions: three iPSC-derived BMEC models (4603, 19-9-7T, AD3-CL1); Transwell polyester insert 0.4 μm pore, 900,000 cells/cm^2, 48 h culture; apical to basal; tracer 0.1 mg/mL in Ringer HEPES buffer pH 7.4; 37 °C, 60 min; fluorescence plate reader; mean of triplicate filters
# hCMEC/D3 cells = conditions: hCMEC/D3 on collagen I-coated Transwell polyester insert 0.4 μm pore, 900,000 cells/cm^2, 48 h; apical to basal; tracer 0.1 mg/mL in Ringer HEPES buffer pH 7.4; 37 °C, 60 min; fluorescence; mean of triplicate filters
# [1] = system: undifferentiated iPSCs (4603); conditions: undifferentiated iPSCs (4603) on collagen IV/fibronectin-coated Transwell insert, 900,000 cells/cm^2, 48 h; apical to basal; tracer 0.1 mg/mL in Ringer HEPES buffer pH 7.4; 37 °C, 60 min; fluorescence; mean of triplicate filters
Compound,% Permeability (percentage of tracer present in the basal chamber) (iPSC-derived BMECs),% Permeability (percentage of tracer present in the basal chamber) (hCMEC/D3 cells),% Permeability (percentage of tracer present in the basal chamber) [1]
"O=C([O-])c1ccccc1-c1c2ccc(=O)cc-2oc2cc([O-])ccc12.[Na+].[Na+] [Na-F, sodium fluorescein]",about 5%,significantly higher than in iPSC-derived BMECs but significantly lower than that of control iPSCs,–
lucifer yellow [LY],Less than 2%,around 16%,around 16%
